# Test results published in ChEMBL document CHEMBL4507292 (2021).
# Assays:
# [1] = target: Neurotensin receptor type 1 (Homo sapiens, UniProt P30989); test: Neurotensin NT1 Eurofins-Panlabs radioligand binding assay; parameters: ligand concentration 0.02 nM, non-specific ligand with concentration 1 µM Neurotensin, incubation time 45 min, incubation temperature 25 °C
# [2] = target: ATP-sensitive inward rectifier potassium channel 11 (Cricetulus griseus) (UniProt A0A3L7HHE1); test: Inhibition of Potassium Channel [KATP] at 10 µM in the Eurofins-Panlabs radioligand binding assay (Eurofins_assay_265600); details: Cricetinae; Compound concentration 10.0 uM
# [3] = target: T1, Prostaglandin G/H synthase 2 (Homo sapiens) (UniProt P35354); test: (§1) Inhibition of Cyclooxygenase COX-2 at compound concentration of 10.0 uM in the Eurofins-Panlabs enzyme assay (Eurofins_assay_118010); parameters: substrate with concentration 0.3 uM Arachidonic acid, incubation time 15 min, incubation temperature 37 C
# T1 sequence (whole entry): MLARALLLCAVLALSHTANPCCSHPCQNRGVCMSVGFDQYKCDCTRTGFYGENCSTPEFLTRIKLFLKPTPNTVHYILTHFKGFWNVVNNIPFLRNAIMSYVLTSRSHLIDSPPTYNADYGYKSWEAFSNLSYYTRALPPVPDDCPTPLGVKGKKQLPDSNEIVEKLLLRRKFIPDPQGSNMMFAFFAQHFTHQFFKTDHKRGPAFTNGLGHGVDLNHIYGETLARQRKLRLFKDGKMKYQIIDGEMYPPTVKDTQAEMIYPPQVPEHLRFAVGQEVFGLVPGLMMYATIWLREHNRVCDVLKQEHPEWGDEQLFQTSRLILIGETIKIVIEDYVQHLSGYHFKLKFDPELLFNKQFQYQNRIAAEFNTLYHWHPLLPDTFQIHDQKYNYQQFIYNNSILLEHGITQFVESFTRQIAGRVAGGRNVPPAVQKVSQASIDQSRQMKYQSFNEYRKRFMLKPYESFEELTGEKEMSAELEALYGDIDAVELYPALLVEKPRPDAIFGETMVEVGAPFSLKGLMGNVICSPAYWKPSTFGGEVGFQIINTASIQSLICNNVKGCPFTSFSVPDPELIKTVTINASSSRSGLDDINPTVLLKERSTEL
# [4] = target: Prostaglandin G/H synthase 2 (Homo sapiens, UniProt P35354); test: as §1; parameters: substrate with concentration 0.3 uM Arachidonic acid, incubation time 15 min, incubation temperature 37 C
# [5] = target: Tyrosine-protein phosphatase non-receptor type 2 (Homo sapiens) (UniProt P17706); test: Protein Tyrosine Phosphatase, PTPN2 (TCPTP) Eurofins-Panlabs enzyme assay; parameters: substrate with concentration DiFMUP, incubation time 60 min, incubation temperature 37 °C; details: Compound concentration 10.0 uM
# [6] = target: Endothelin-1 receptor (Homo sapiens) (UniProt P25101); details: Compound concentration 10.0 uM
# [7] = target: Glucocorticoid receptor (Homo sapiens) (UniProt P04150); test: Glucocorticoid Eurofins-Panlabs radioligand binding assay; details: Compound concentration 10.0 uM
# [8] = target: Histamine H3 receptor (Homo sapiens) (UniProt Q9Y5N1); test: Histamine H3 Eurofins-Panlabs radioligand binding assay; details: Compound concentration 10.0 uM
# Rattus norvegicus = species: Rattus norvegicus; test: Inhibition of Glutamate, NMDA, Phencyclidine at 10 µM in the Eurofins-Panlabs radioligand binding assay (Eurofins_assay_233000); assay type: protein-complex assay
# [9] = target: Vasopressin V2 receptor (Homo sapiens) (UniProt P30518); test: Vasopressin V2 Eurofins-Panlabs radioligand binding assay; parameters: ligand concentration 0.5 nM; details: Compound concentration 10.0 uM
# [10] = target: Bombesin receptor (Rattus norvegicus) (UniProt P52500+P24053+Q8K418); test: Bombesin, Non-Selective Eurofins-Panlabs radioligand binding assay; assay type: protein assay; details: Compound concentration 10.0 uM
# [11] = target: Adenosine Transporter (Cavia porcellus) (UniProt H0V4R7+H0UUG1+H0V3Z5); test: Inhibition of Transporter, Adenosine at compound concentration of 10.0 uM in the Eurofins-Panlabs radioligand binding assay (Eurofins_assay_202000); assay type: protein assay; parameters: ligand concentration 0.5 nM, non-specific ligand with concentration 5 uM Nitrobenzylthioinosine, incubation time 30 min, incubation temperature 25 C; details: Compound concentration 10.0 uM
# [12] = target: T2, Sodium-dependent noradrenaline transporter (Homo sapiens, UniProt P23975)
# [13] = target: Cannabinoid receptor 1 (Homo sapiens) (UniProt P21554); test: Cannabinoid CB1 Eurofins-Panlabs radioligand binding assay; details: Compound concentration 10.0 uM
# [14] = target: Somatostatin receptor type 1 (Homo sapiens) (UniProt P30872); test: Somatostatin sst1 Eurofins-Panlabs radioligand binding assay; parameters: ligand concentration 0.1 nM; details: Compound concentration 10.0 uM
# [15] = target: T3, Alpha-1D adrenergic receptor (Homo sapiens) (UniProt P25100); test: Inhibition of Adrenergic alpha1D at 10 µM in the Eurofins-Panlabs radioligand binding assay (Eurofins_assay_203400); details: Compound concentration 10.0 uM
# T3 sequence (whole entry): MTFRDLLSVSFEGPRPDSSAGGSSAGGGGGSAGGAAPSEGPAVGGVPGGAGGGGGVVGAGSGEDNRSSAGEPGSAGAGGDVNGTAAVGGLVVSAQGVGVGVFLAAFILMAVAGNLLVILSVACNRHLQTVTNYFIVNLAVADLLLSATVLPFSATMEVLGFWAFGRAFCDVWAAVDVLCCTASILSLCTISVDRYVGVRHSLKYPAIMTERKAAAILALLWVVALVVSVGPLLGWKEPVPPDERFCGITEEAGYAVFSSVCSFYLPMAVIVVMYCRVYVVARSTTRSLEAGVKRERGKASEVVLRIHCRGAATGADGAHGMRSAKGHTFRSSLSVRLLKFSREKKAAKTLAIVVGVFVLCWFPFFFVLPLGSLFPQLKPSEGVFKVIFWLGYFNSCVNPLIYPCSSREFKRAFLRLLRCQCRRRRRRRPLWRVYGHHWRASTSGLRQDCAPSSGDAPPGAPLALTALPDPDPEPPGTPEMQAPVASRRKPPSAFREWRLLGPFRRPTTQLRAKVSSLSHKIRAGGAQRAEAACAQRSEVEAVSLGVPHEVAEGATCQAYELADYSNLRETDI
# [16] = target: D(2) dopamine receptor (Homo sapiens) (UniProt P14416); details: Compound concentration 10.0 uM
# [17] = target: Neuropeptide Y receptor type 2 (Homo sapiens) (UniProt P49146); test: Inhibition of Neuropeptide Y Y2 at 10 µM in the Eurofins-Panlabs radioligand binding assay (Eurofins_assay_257110); details: Compound concentration 10.0 uM
# [18] = Protein Tyrosine Kinase, pp60 c-SRC Eurofins-Panlabs enzyme assay
# [19] = target: T2, Sodium-dependent noradrenaline transporter; test: Inhibition of Transporter, Norepinephrine (NET) at compound concentration of 10.0 uM in the Eurofins-Panlabs radioligand binding assay (Eurofins_assay_204410); parameters: ligand concentration 0.2 nM, non-specific ligand with concentration 10 uM Desipramine, incubation time 3 h, incubation temperature 4 C
# [20] = target: cGMP-dependent 3',5'-cyclic phosphodiesterase (Homo sapiens, UniProt O00408); test: Phosphodiesterase PDE2 Eurofins-Panlabs enzyme assay; parameters: substrate with concentration [3H] cAMP + cAMP, incubation time 20 min, incubation temperature 25 °C
# [21] = target: 5-hydroxytryptamine receptor 2A (Homo sapiens) (UniProt P28223); details: Compound concentration 10.0 uM
# [22] = target: Polyunsaturated fatty acid lipoxygenase ALOX12 (Homo sapiens) (UniProt P18054); test: Lipoxygenase 12-LO Eurofins-Panlabs enzyme assay; parameters: substrate with concentration; details: Compound concentration 10.0 uM
# T2 sequence (P23975 whole entry): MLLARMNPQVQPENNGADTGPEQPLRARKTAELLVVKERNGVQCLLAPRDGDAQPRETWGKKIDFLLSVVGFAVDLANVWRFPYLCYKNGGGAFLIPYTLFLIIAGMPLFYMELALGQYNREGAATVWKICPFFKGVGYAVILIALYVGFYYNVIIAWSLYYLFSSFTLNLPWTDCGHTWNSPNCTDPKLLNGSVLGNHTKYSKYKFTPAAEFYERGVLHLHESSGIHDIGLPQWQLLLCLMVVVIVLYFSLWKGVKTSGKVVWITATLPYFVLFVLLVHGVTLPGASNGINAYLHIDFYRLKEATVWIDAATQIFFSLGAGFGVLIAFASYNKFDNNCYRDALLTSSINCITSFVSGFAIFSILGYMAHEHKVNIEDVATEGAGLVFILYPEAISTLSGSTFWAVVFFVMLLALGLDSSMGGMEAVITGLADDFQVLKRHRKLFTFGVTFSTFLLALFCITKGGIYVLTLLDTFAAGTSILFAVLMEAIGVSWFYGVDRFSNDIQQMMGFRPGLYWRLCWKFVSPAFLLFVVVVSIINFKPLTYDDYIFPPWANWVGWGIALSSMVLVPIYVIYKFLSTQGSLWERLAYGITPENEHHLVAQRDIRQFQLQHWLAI
# Neurotensin receptor type 1, sequence (P30989 whole entry): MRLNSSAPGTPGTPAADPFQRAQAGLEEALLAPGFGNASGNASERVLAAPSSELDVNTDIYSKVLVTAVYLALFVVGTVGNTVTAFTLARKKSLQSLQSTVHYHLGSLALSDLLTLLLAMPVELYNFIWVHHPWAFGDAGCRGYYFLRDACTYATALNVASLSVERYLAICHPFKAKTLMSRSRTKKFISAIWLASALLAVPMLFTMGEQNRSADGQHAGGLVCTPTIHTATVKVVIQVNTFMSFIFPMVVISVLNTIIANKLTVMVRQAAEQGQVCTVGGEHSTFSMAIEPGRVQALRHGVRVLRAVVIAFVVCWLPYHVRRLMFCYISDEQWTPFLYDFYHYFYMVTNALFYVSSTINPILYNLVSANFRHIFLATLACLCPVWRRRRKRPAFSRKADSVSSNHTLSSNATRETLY
# cGMP-dependent 3',5'-cyclic phosphodiesterase, sequence (O00408 whole entry): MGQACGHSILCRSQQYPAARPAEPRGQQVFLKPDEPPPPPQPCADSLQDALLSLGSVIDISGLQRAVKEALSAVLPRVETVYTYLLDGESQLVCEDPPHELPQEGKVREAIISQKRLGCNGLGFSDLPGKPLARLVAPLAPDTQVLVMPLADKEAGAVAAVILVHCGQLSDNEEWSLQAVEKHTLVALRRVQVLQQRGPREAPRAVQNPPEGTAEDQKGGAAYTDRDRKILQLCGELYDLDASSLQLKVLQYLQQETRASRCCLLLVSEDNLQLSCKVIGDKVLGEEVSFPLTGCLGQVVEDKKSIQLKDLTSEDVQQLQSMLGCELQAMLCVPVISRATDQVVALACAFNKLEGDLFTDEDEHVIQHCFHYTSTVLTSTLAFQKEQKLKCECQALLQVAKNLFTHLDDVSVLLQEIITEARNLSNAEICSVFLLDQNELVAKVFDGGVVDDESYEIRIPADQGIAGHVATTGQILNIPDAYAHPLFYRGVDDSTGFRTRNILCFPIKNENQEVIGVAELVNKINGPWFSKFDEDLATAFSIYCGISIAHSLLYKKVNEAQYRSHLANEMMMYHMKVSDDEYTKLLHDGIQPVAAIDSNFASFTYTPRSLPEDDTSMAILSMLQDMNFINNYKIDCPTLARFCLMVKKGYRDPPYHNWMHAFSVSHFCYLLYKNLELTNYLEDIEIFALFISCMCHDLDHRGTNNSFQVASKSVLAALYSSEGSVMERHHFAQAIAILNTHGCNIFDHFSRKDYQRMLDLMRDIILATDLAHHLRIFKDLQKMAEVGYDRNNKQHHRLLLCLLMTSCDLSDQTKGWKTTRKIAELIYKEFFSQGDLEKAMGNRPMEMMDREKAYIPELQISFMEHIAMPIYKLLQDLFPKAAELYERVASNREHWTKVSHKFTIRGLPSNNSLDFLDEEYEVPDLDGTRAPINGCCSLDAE
# 5-hydroxytryptamine receptor 2A (Homo sapiens), sequence (P28223 whole entry): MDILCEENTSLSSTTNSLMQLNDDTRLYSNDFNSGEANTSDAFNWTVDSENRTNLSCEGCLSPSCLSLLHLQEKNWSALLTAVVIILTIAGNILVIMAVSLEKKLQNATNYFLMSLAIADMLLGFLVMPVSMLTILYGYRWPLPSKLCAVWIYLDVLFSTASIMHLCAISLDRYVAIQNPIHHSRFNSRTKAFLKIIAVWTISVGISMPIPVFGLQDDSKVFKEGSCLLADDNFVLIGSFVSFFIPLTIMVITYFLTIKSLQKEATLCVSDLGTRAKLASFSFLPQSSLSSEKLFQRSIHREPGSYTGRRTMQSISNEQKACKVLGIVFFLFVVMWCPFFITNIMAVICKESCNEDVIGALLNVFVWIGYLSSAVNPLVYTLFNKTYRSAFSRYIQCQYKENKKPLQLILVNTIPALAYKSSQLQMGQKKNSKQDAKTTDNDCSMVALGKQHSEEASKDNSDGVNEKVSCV
# Bombesin receptor (Rattus norvegicus), sequence (P24053 whole entry, looked up): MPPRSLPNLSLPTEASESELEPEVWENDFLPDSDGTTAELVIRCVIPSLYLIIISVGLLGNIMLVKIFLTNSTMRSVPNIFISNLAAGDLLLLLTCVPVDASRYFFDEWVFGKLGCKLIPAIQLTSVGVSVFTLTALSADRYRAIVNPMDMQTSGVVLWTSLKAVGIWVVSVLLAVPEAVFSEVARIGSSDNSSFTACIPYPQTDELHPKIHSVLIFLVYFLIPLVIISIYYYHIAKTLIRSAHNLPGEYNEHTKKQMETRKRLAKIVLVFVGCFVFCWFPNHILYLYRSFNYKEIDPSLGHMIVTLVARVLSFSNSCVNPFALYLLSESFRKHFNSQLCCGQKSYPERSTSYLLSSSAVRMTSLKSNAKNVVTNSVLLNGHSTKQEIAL
# Bombesin receptor (Rattus norvegicus), sequence (P52500 whole entry, looked up): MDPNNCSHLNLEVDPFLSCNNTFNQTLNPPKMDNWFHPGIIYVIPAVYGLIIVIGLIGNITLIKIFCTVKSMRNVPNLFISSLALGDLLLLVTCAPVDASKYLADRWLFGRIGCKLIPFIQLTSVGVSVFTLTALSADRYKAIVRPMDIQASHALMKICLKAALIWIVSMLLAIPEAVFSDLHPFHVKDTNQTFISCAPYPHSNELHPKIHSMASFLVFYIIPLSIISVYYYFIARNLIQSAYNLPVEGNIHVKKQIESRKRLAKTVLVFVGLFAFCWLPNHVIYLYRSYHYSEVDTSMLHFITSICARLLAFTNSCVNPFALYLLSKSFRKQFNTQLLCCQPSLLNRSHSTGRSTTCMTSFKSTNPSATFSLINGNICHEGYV
# Bombesin receptor (Rattus norvegicus), sequence (Q8K418 whole entry, looked up): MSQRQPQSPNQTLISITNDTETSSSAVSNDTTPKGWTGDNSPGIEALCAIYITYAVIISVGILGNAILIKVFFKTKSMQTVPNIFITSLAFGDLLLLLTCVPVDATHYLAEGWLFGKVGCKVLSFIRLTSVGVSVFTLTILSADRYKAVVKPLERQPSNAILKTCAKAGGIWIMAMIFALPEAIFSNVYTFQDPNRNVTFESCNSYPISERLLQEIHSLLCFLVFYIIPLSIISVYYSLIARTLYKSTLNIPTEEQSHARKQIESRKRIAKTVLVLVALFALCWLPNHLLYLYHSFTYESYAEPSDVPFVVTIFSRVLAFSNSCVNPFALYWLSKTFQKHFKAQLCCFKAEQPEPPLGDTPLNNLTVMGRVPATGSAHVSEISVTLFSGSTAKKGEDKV
# Vasopressin V2 receptor (Homo sapiens), sequence (P30518 whole entry): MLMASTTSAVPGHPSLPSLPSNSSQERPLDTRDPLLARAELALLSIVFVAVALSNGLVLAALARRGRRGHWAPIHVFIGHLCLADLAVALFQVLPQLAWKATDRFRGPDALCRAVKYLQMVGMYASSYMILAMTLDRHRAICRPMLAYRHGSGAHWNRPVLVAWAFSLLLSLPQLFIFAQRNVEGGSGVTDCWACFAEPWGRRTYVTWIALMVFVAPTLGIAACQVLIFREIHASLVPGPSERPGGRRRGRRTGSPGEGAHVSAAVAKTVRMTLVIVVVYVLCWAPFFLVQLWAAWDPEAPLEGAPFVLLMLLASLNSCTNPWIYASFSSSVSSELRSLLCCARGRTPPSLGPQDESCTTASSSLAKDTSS
# Glucocorticoid receptor (Homo sapiens), sequence (P04150 whole entry): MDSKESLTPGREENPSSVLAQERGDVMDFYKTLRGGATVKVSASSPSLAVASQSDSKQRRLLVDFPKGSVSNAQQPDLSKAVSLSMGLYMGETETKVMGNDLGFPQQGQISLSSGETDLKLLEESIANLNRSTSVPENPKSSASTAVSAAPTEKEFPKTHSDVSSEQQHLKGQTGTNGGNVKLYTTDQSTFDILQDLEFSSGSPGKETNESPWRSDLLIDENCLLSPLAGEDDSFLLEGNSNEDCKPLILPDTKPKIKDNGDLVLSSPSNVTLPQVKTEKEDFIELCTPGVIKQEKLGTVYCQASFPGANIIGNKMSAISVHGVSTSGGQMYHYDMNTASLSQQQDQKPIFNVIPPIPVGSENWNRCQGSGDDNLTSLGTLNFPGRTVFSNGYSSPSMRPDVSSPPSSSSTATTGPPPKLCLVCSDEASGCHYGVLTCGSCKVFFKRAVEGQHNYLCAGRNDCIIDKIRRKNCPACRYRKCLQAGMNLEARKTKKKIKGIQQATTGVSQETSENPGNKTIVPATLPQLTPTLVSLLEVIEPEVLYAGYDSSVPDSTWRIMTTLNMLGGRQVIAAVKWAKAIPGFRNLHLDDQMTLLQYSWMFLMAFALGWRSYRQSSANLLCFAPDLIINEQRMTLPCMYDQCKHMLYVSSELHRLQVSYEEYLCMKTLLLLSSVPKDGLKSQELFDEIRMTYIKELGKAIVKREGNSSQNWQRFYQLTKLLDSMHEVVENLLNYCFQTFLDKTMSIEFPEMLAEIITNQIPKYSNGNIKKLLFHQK
structure (smiles),measurement,setting,value
O=C(O)c1cc(-c2ccc(C3CCNCC3)cc2)c2ccc(-c3ccc(C(F)(F)F)cc3)cc2c1 [PPTN],IC50,[1],8.66 µM
same,Ki,[1],6.97 µM
same,inhibition,[1]; Compound concentration 0.01 uM,11%
same,inhibition,[1]; Compound concentration 0.1 uM,10%
same,inhibition,[1]; Compound concentration 1.0 uM,-9%
same,inhibition,[1]; Compound concentration 10.0 uM,69%
same,inhibition,[2],1%
same,inhibition,[3]; Compound concentration 0.01 uM,-3%
same,inhibition,[3]; Compound concentration 0.1 uM,0%
same,inhibition,[3]; Compound concentration 1.0 uM,-1%
same,inhibition,[3]; Compound concentration 10.0 uM,70%
same,IC50,[4],8.71 µM
same,inhibition,[5],-4%
same,inhibition,[6],6%
same,inhibition,[7],-9%
same,inhibition,[8],0%
same,inhibition,Rattus norvegicus,17%
same,inhibition,[9],28%
same,inhibition,[10],4%
same,inhibition,[11],9%
same,inhibition,[12]; Compound concentration 0.01 uM,6%
same,inhibition,[12]; Compound concentration 0.1 uM,-2%
same,inhibition,[12]; Compound concentration 1.0 uM,20%
same,inhibition,[12]; Compound concentration 10.0 uM,78%
same,inhibition,[13],-6%
same,inhibition,[14],34%
same,inhibition,[15],-5%
same,inhibition,[16],28%
same,inhibition,[17],-1%
same,IC50,[18],9.02 µM
same,IC50,[19],3.3 µM
same,Ki,[19],3.27 µM
same,IC50,[20],86.9 µM
same,inhibition,[20]; Compound concentration 1.0 uM,-3%
same,inhibition,[20]; Compound concentration 10.0 uM,4%
same,inhibition,[20]; Compound concentration 100.0 uM,55%
same,inhibition,[21],42%
same,inhibition,[22],30%
